Test results reported in patent US20070134157A1, “Biological assay” (priority 2004, published 2007).

How the values were obtained:
Sprague Dawley rats [1] = assay: rat electrocardiogram/electrophysiology model, 20-min continuous intravenous infusion; type: in vivo; conditions: for Percent change AH / Percent change ARP / Percent change AVRP / Percent change HR / Percent change HV / Percent change MAP / Percent change PR / Percent change QRS / Percent change QT / Percent change QTc / Percent change VRP: after a 20 min infusion, ± se
Procedure: (§1) Adult, male Sprague Dawley rats (240-280 g) were used for all studies. Rats were anesthetized with a mixture of ketamine:xylazine (85 mg/kg:5 mg/kg, ip). Catheters were placed in the left femoral artery and left femoral vein for the measurement of arterial pressure and the administration of test agents, respectively. In addition, a catheter was placed in the right femoral vein to administer a continuous infusion of ketamine:xylazine (45 mg/kg/hr:1.5 mg/kg/hr). A recording/stimulating catheter was then placed in the right jugular vein and advanced to the right atrium. Two electrodes were used to obtain bipolar atrial electrogram recording, and two were used for bipolar pacing of the atria/heart. The right carotid artery was then cannulated with a second recording/stimulating catheter, and the catheter was advance into the left ventricle. Two electrodes were used to obtain bipolar ventricular and His bundle electrograms, and two were used to pace the ventricle. Needle electrodes were placed subcutaneously in the right axillary and left inguinal areas to record lead II electrocardiogram. After equilibration and baseline readings, continuous infusion of test agent or vehicle was started and readings taken at 10 min and 20 min after start of infusion. Blood samples for plasma analysis were obtained from the femoral artery catheter at 10 and 20 min after the start of the infusion. Atrial effective (ARP), ventricular effective (VRP), and AV node effective (AVRP) refractory periods determined as follows: excitation threshold was determined for the atria and ventricles, then a conditioning train of stimuli (S1, 1 ms duration) at a cycle length of 150 ms was delivered at 1×-2× threshold followed by an extrastimulus (S2, 1 ms duration) at 2× threshold. The S1—S2 coupling interval was decreased by 5 ms, then 1 ms intervals to obtain refractory periods. ARP and VRP were defined as the shortest coupling interval that permitted propagation of an atrial or ventricular extrastimulus. AVRP was defined as the shortest coupling interval that permitted the propagation of the atria extrastimulus through the AV node to elicit ventricular depolarization. In addition, PR, AH (both a measure of AV nodal conduction) and HV (a measure of His-Purkinje conduction) intervals were measured during short (10-20 sec) trains of fixed S1—S1 interval pacing of 150 ms. QT interval was obtained during sinus rhythm. […] Am J Physiol. 1998;274:H747-51) were reported. Compounds were dissolved in either saline or N,N-dimethylformamide. Intravenous infusion of test agents or vehicles was normalized to body weight.
In an extension of these studies to longer duration infusions, 3-[(dimethylamino)methyl]-6-methoxy-2-methyl-4-phenylisoquinolin-1(2H)-one hydrochloride and (2-isopropyl-5-methylcyclohexyl)(diphenyl)phosphine oxide were tested in a 20-min intravenous continuous infusion protocol. […] Plasma levels of 3-[(dimethylamino)methyl]-6-methoxy-2-methyl-4-phenylisoquinolin-1(2H)-one hydrochloride at 10 and 20 min after the start of a 0.1 mg/kg/min infusion were 3.4±0.2 μM and 2.8±0.3 μM, respectively.

[2] = plasma levels during continuous intravenous infusion; type: in vivo, rat; conditions: for concentration at 10 min / concentration at 20 min: male, Sprague Dawley, rat, plasma, intravenous; for concentration at 10 min: 10 min after start; for concentration at 20 min: 20 min after start
Procedure: as §1

Sprague Dawley rats [3] = assay: rat electrocardiogram/electrophysiology model, 5-min intravenous infusion paradigm; type: in vivo; conditions: readings immediately after the infusion, dose dependent
Procedure: as §1
Two infusion paradigms were tested with two structurally distinct Kv1.5 antagonists, 3-[(dimethylamino)methyl]-6-methoxy-2-methyl-4-phenylisoquinolin-1(2H)-one hydrochloride (described in WO 02/24655 A1) and (2-isopropyl-5-methylcyclohexyl)(diphenyl)phosphine oxide (described in U.S. Pat. No. 6,214,809 B1). In an initial shorter duration infusion paradigm, a 5-min intravenous infusion of compound or vehicle was administered with electrocardiogram/electrophysiology readings determined immediately after the infusion.

[4] = 20-min infusion, dose that produced a similar increase in VRP as the Kv1.5 antagonists
[5] = 0.1 mg/kg/min, 20-min after start of infusion
[6] = 0.1 mg/kg/min, 10 min after start of infusion
[7] = 0.2 mg/kg/min, DMF vehicle, 20-min infusion
[8] = 0.2 mg/kg/min, saline vehicle, 10-min post infusion
[9] = 0.2 mg/kg/min, saline vehicle, 20 min after start of infusion
[10] = 0.2 mg/kg/min, 10-min post infusion
[11] = 0.2 mg/kg/min, listed as (2-isopropyl-5-methylcyclohexyl)(diphenyl)phosphine oxide
[12] = dose that caused a similar decrease in blood pressure as 0.03 mg/kg/min amlodipine
[13] = doses that caused similar blood pressure lowering as higher infusion rates of amlodipine

Compound: CS(=O)(=O)Nc1ccc2c(c1)C(O)CC1(CCN(C3CCc4cc(C#N)ccc4C3)CC1)O2.Cl [Ikr blocker, N-[1′-(6-cyano-1,2,3,4-tetrahydro-2(R)-naphthalenyl)-3,4-dihydro-4(R)-hydroxyspiro[2H-1-benzopyran-2,4′-piperidin]-6-YL]-,(+)-,monohydrochloride]
- Percent change AH (Sprague Dawley rats [1]; 0.0001 mg/kg/min): 2 ± 1%
- Percent change ARP (Sprague Dawley rats [1]; 0.0001 mg/kg/min): 0 ± 2%
- Percent change AVRP (Sprague Dawley rats [1]; 0.0001 mg/kg/min): 1 ± 2%
- Percent change HR (Sprague Dawley rats [1]; 0.0001 mg/kg/min): −1 ± 5%
- Percent change HV (Sprague Dawley rats [1]; 0.0001 mg/kg/min): −1 ± 1%
- Percent change MAP (Sprague Dawley rats [1]; 0.0001 mg/kg/min): −7 ± 8%
- Percent change PR (Sprague Dawley rats [1]; 0.0001 mg/kg/min): 2 ± 2%
- Percent change QRS (Sprague Dawley rats [1]; 0.0001 mg/kg/min): 0 ± 1%
- Percent change QT (Sprague Dawley rats [1]; 0.0001 mg/kg/min): 1 ± 1%
- Percent change QTc (Sprague Dawley rats [1]; 0.0001 mg/kg/min): 0 ± 2%
- Percent change VRP (Sprague Dawley rats [1]; 0.0001 mg/kg/min): −2 ± 1%
- Percent change AH (Sprague Dawley rats [1]; 0.001 mg/kg/min): 9 ± 1%
- Percent change ARP (Sprague Dawley rats [1]; 0.001 mg/kg/min): 2 ± 4%
- Percent change AVRP (Sprague Dawley rats [1]; 0.001 mg/kg/min): 11 ± 1%
- Percent change HR (Sprague Dawley rats [1]; 0.001 mg/kg/min): 3 ± 4%
- Percent change HV (Sprague Dawley rats [1]; 0.001 mg/kg/min): −4 ± 3%
- Percent change MAP (Sprague Dawley rats [1]; 0.001 mg/kg/min): −1 ± 3%
- Percent change PR (Sprague Dawley rats [1]; 0.001 mg/kg/min): 8 ± 1%
- Percent change QRS (Sprague Dawley rats [1]; 0.001 mg/kg/min): 3 ± 1%
- Percent change QT (Sprague Dawley rats [1]; 0.001 mg/kg/min): −1 ± 1%
- Percent change QTc (Sprague Dawley rats [1]; 0.001 mg/kg/min): 1 ± 1%
- Percent change VRP (Sprague Dawley rats [1]; 0.001 mg/kg/min): 0 ± 1%
- Percent change AH (Sprague Dawley rats [1]; 0.03 mg/kg/min): 13 ± 4%
- Percent change ARP (Sprague Dawley rats [1]; 0.03 mg/kg/min): 4 ± 4%
- Percent change AVRP (Sprague Dawley rats [1]; 0.03 mg/kg/min): 21 ± 3%
- Percent change HR (Sprague Dawley rats [1]; 0.03 mg/kg/min): 22 ± 5%
- Percent change HV (Sprague Dawley rats [1]; 0.03 mg/kg/min): 4 ± 3%
- Percent change MAP (Sprague Dawley rats [1]; 0.03 mg/kg/min): 18 ± 5%
- Percent change PR (Sprague Dawley rats [1]; 0.03 mg/kg/min): 9 ± 4%
- Percent change QRS (Sprague Dawley rats [1]; 0.03 mg/kg/min): 0 ± 1%
- Percent change QT (Sprague Dawley rats [1]; 0.03 mg/kg/min): 11 ± 3%
- Percent change QTc (Sprague Dawley rats [1]; 0.03 mg/kg/min): 23 ± 5%
- Percent change VRP (Sprague Dawley rats [1]; 0.03 mg/kg/min): 7 ± 2%
- increase in AH interval (delay in AV node conduction) (Sprague Dawley rats [1]; [4]): ~13%
- increase in AVRP (Sprague Dawley rats [1]; [4]): 21%
- increase in HR (Sprague Dawley rats [1]; [4]): 22%
- increase in MAP (Sprague Dawley rats [1]; [4]): 18%
- ARP (Sprague Dawley rats [1]; infusion of lower doses): no change
- AVRP (Sprague Dawley rats [1]; infusion of lower doses): significant changes
- VRP (Sprague Dawley rats [1]; infusion of lower doses): no change
- plasma concentrations [2, 4]: ~600 nM
- plasma concentration ([2]; infusion of lower doses): 27 nM

Compound: CCOC(=O)C1=C(COCCN)NC(C)=C(C(=O)OC)C1c1ccccc1Cl (centres unmarked) [amlodipine]
- decrease in blood pressure (Sprague Dawley rats [1]; 0.03 mg/kg/min for 20 min): −14%
- decrease in blood pressure (Sprague Dawley rats [1]; higher infusion rates): 30%
- increase in AV nodal conduction (Sprague Dawley rats [1]; higher infusion rates): 6%
- increase in AV nodal refractoriness (Sprague Dawley rats [1]; higher infusion rates): 7%

Compound: COc1ccc2c(=O)n(C)c(CN(C)C)c(-c3ccccc3)c2c1.Cl [compound 1, 3-[(dimethylamino)methyl]-6-methoxy-2-methyl-4-phenylisoquinolin-1(2H)-one hydrochloride]
- ARP (Sprague Dawley rats [1]; [5]): no change
- increase in QT (Sprague Dawley rats [1]; [5]): 10%
- increase in QTc (Sprague Dawley rats [1]; [5]): 16%
- increase in VRP (Sprague Dawley rats [1]; [5]): 5%
- increase in heart rate (Sprague Dawley rats [1]; [5]): 5%
- ARP (Sprague Dawley rats [1]; [6]): no change
- QT (Sprague Dawley rats [1]; [6]): slight increase
- QTc (Sprague Dawley rats [1]; [6]): slight increase
- VRP (Sprague Dawley rats [1]; [6]): no change
- increase in ARP (Sprague Dawley rats [1]; [7]): 8%
- increase in QT (Sprague Dawley rats [1]; [7]): 11%
- increase in VRP (Sprague Dawley rats [1]; [7]): 13%
- Percent change AH (Sprague Dawley rats [1]; 0.2 mg/kg/min): 5 ± 1%
- Percent change ARP (Sprague Dawley rats [1]; 0.2 mg/kg/min): 5 ± 3%
- Percent change AVRP (Sprague Dawley rats [1]; 0.2 mg/kg/min): 4 ± 2%
- Percent change HR (Sprague Dawley rats [1]; 0.2 mg/kg/min): −1 ± 4%
- Percent change HV (Sprague Dawley rats [1]; 0.2 mg/kg/min): 0 ± 3%
- Percent change MAP (Sprague Dawley rats [1]; 0.2 mg/kg/min): 2 ± 2%
- Percent change PR (Sprague Dawley rats [1]; 0.2 mg/kg/min): 3 ± 1%
- Percent change QRS (Sprague Dawley rats [1]; 0.2 mg/kg/min): 0 ± 0%
- Percent change QT (Sprague Dawley rats [1]; 0.2 mg/kg/min): 12 ± 2%
- Percent change QTc (Sprague Dawley rats [1]; 0.2 mg/kg/min): 11 ± 2%
- Percent change VRP (Sprague Dawley rats [1]; 0.2 mg/kg/min): 13 ± 1%
- QT (Sprague Dawley rats [1]; [8]): significant increases
- VRP (Sprague Dawley rats [1]; [8]): significant increases
- change in RR interval (Sprague Dawley rats [1]; [9]): −17%
- heart rate (Sprague Dawley rats [1]; [9]): significant increases
- increase in ARP (Sprague Dawley rats [1]; [9]): 12%
- increase in QT interval (Sprague Dawley rats [1]; [9]): 14%
- increase in QTc (Sprague Dawley rats [1]; [9]): 24%
- increase in VRP (Sprague Dawley rats [1]; [9]): 11%
- ARP (Sprague Dawley rats [3]): increases
- QT interval (Sprague Dawley rats [3]): increases
- VRP (Sprague Dawley rats [3]): increases
- plasma levels, saline group versus DMF group ([2]; 0.2 mg/kg/min, dissolved in saline or DMF): similar
- concentration at 10 min ([2]; 0.1 mg/kg/min infusion): 3.4 ± 0.2 µM
- concentration at 20 min ([2]; 0.1 mg/kg/min infusion): 2.8 ± 0.3 µM
- concentration at 10 min ([2]; 0.2 mg/kg/min infusion): 6.3 ± 0.5 µM
- concentration at 20 min ([2]; 0.2 mg/kg/min infusion): 5.5 ± 0.2 µM

Compound: CC1CCC(C(C)C)C(P(=O)(c2ccccc2)c2ccccc2)C1 (centres unmarked) [compound 2, (2-isopropyl-5-methylcyclohexyl)(diphenyl)phosphine oxide]
- ARP (Sprague Dawley rats [1]; [10]): significant increases
- QT (Sprague Dawley rats [1]; [10]): significant increases
- VRP (Sprague Dawley rats [1]; [10]): significant increases
- Percent change AH (Sprague Dawley rats [1]; 0.2 mg/kg/min): −1 ± 1%
- Percent change ARP (Sprague Dawley rats [1]; 0.2 mg/kg/min): 26 ± 4%
- Percent change AVRP (Sprague Dawley rats [1]; 0.2 mg/kg/min): −1 ± 1%
- Percent change HR (Sprague Dawley rats [1]; 0.2 mg/kg/min): 8 ± 6%
- Percent change HV (Sprague Dawley rats [1]; 0.2 mg/kg/min): −8 ± 3%
- Percent change MAP (Sprague Dawley rats [1]; 0.2 mg/kg/min): 4 ± 4%
- Percent change PR (Sprague Dawley rats [1]; 0.2 mg/kg/min): −3 ± 1%
- Percent change QRS (Sprague Dawley rats [1]; 0.2 mg/kg/min): −3 ± 4%
- Percent change QT (Sprague Dawley rats [1]; 0.2 mg/kg/min): 27 ± 7%
- Percent change QTc (Sprague Dawley rats [1]; 0.2 mg/kg/min): 33 ± 8%
- Percent change VRP (Sprague Dawley rats [1]; 0.2 mg/kg/min): 22 ± 5%
- Percent change ARP (Sprague Dawley rats [1]; [11]): 24%
- Percent change QT (Sprague Dawley rats [1]; [11]): 27%
- Percent change QTc (Sprague Dawley rats [1]; [11]): 33%
- Percent change VRP (Sprague Dawley rats [1]; [11]): 22%
- ARP (Sprague Dawley rats [3]): increases
- QT interval (Sprague Dawley rats [3]): increases
- VRP (Sprague Dawley rats [3]): increases

Compound: COc1ccc([C@@H]2Sc3ccccc3N(CCN(C)C)C(=O)[C@@H]2OC(C)=O)cc1 [diltiazem]
- decrease in heart rate (Sprague Dawley rats [1]; [12]): 12%
- increase in AV nodal conduction (Sprague Dawley rats [1]; [12]): 9%
- increase in AV nodal refractoriness (Sprague Dawley rats [1]; [12]): 10%
- blood pressure lowering (Sprague Dawley rats [1]; [13]): 23%
- increase in AV nodal conduction (Sprague Dawley rats [1]; [13]): 15%
- increase in AV nodal refractoriness (Sprague Dawley rats [1]; [13]): 19%

Compound: CCN(CC)CCNC(=O)c1ccc(N)cc1 [procainamide]
- HV interval (Sprague Dawley rats [1]; infusion at increasing rates): dose-dependent increases
- QRS interval (Sprague Dawley rats [1]; infusion at increasing rates): dose-dependent increases
- blood pressure (Sprague Dawley rats [1]; infusion at increasing rates): without having significant effects
- heart rate (Sprague Dawley rats [1]; infusion at increasing rates): without having significant effects
